PubChem BioAssay AID2060912 (Molecular Pharmacology Branch, DTP, NCI, 2025)

System: HUVEC/MSC spheroids viability
Test: Human HUVEC/MSC cell line growth inhibition [KRAS2];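 as to viability, T/C: percent of DMSO vehicle control luminescence so 100% = untreated viability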
Settings: for viability, T/C: stronger effect = lower value; active = viability on the fitted dose curve at most 10% of control; inactive = the rest
Method in brief: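 The concentration series started at or near clinical Cmax (10 microM if not known) and fell in half-log increments, alone or in combination. Cells were stromal-only spheroids of pooled-donor HUVEC and hMSC (passage </=5), with different drug plates and layout from the tumor spheroid screens.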

CCNC(=O)CC1N=C(c2ccc(Cl)cc2)c2cc(OC)ccc2-n2c(C)nnc21 (stereo unspecified) + C=CC(=O)N1CCN(c2nc(OCC3CCCN3C)nc3c2CCN(c2cccc4cccc(C)c24)C3)CC1CC#N
> 10 µM: IC50 (curve of first compound, second compound 0.00949 µM) | IC50 (curve of first compound, second compound 0.03 µM) | IC50 (curve of first compound, second compound 0.0949 µM) | IC50 (curve of first compound, second compound 0.3 µM) | IC50 (curve of first compound, second compound 0.949 µM) | IC50 (curve of first compound, second compound 3 µM)
inactive: viability, T/C (second compound 0.00949 µM, first compound 0.0316 µM) 68.5% | viability, T/C (second compound 0.00949 µM, first compound 0.1 µM) 79.5% | viability, T/C (second compound 0.00949 µM, first compound 0.316 µM) 69.5% | viability, T/C (second compound 0.00949 µM, first compound 1 µM) 115% | viability, T/C (second compound 0.00949 µM, first compound 3.16 µM) 100% | viability, T/C (second compound 0.00949 µM, first compound 10 µM) 90.3% | viability, T/C (second compound 0.03 µM, first compound 0.0316 µM) 82.6% | viability, T/C (second compound 0.03 µM, first compound 0.1 µM) 76.9% | viability, T/C (second compound 0.03 µM, first compound 0.316 µM) 79.1% | viability, T/C (second compound 0.03 µM, first compound 1 µM) 108% | viability, T/C (second compound 0.03 µM, first compound 3.16 µM) 119% | viability, T/C (second compound 0.03 µM, first compound 10 µM) 110% | viability, T/C (second compound 0.0949 µM, first compound 0.0316 µM) 73.3% | viability, T/C (second compound 0.0949 µM, first compound 0.1 µM) 63.3% | viability, T/C (second compound 0.0949 µM, first compound 0.316 µM) 78.8% | viability, T/C (second compound 0.0949 µM, first compound 1 µM) 115% | viability, T/C (second compound 0.0949 µM, first compound 3.16 µM) 97.8% | viability, T/C (second compound 0.0949 µM, first compound 10 µM) 111% | viability, T/C (second compound 0.3 µM, first compound 0.0316 µM) 72.8% | viability, T/C (second compound 0.3 µM, first compound 0.1 µM) 64.3% | viability, T/C (second compound 0.3 µM, first compound 0.316 µM) 60.5% | viability, T/C (second compound 0.3 µM, first compound 1 µM) 102% | viability, T/C (second compound 0.3 µM, first compound 3.16 µM) 91.9% | viability, T/C (second compound 0.3 µM, first compound 10 µM) 104% | viability, T/C (second compound 0.949 µM, first compound 0.0316 µM) 53.3% | viability, T/C (second compound 0.949 µM, first compound 0.1 µM) 63.1% | viability, T/C (second compound 0.949 µM, first compound 0.316 µM) 82.7% | viability, T/C (second compound 0.949 µM, first compound 1 µM) 74% | viability, T/C (second compound 0.949 µM, first compound 3.16 µM) 83.7% | viability, T/C (second compound 0.949 µM, first compound 10 µM) 86.1% | viability, T/C (second compound 3 µM, first compound 0.0316 µM) 75.5% | viability, T/C (second compound 3 µM, first compound 0.1 µM) 89.9% | viability, T/C (second compound 3 µM, first compound 0.316 µM) 82.7% | viability, T/C (second compound 3 µM, first compound 1 µM) 67.1% | viability, T/C (second compound 3 µM, first compound 3.16 µM) 71.2% | viability, T/C (second compound 3 µM, first compound 10 µM) 54.3%

COc1cc(OC)cc(N(CCNC(C)C)c2ccc3ncc(-c4cnn(C)c4)nc3c2)c1
inactive: viability, T/C (compound 0.0316 µM) 60.9% [middle of 5 runs] | viability, T/C (compound 0.1 µM) 45.4% [middle of 5 runs] | viability, T/C (compound 0.316 µM) 38.2% [middle of 5 runs] | viability, T/C (compound 1 µM) 38.3% [middle of 5 runs] | viability, T/C (compound 3.16 µM) 41.8% [middle of 5 runs] | viability, T/C (compound 10 µM) 34.8% [middle of 5 runs]
66.1 nM [middle of 5 runs]: IC50 (curve of compound)

Cn1nccc1Nc1nccc(-c2cc3c(s2)C(C)(C)N(CCN2CCOCC2)C3=O)n1 + CNCc1ccccc1-c1csc(C(C)Nc2nc(C)nc3cc(OC)c(OC)cc23)c1
2.14 µM: IC50 (curve of first compound, second compound 0.0316 µM)
inactive: viability, T/C (second compound 0.0316 µM, first compound 0.0316 µM) 94.5% | viability, T/C (second compound 0.0316 µM, first compound 0.1 µM) 119% | viability, T/C (second compound 0.0316 µM, first compound 0.316 µM) 117% | viability, T/C (second compound 0.0316 µM, first compound 1 µM) 94.7% | viability, T/C (second compound 0.0316 µM, first compound 3.16 µM) 26.9% | viability, T/C (second compound 0.1 µM, first compound 0.0316 µM) 85.8% | viability, T/C (second compound 0.1 µM, first compound 0.1 µM) 103% | viability, T/C (second compound 0.1 µM, first compound 0.316 µM) 105% | viability, T/C (second compound 0.1 µM, first compound 1 µM) 110% | viability, T/C (second compound 0.1 µM, first compound 3.16 µM) 36.7% | viability, T/C (second compound 0.316 µM, first compound 0.0316 µM) 88.2% | viability, T/C (second compound 0.316 µM, first compound 0.1 µM) 96.1% | viability, T/C (second compound 0.316 µM, first compound 0.316 µM) 103% | viability, T/C (second compound 0.316 µM, first compound 1 µM) 111% | viability, T/C (second compound 0.316 µM, first compound 3.16 µM) 39.6% | viability, T/C (second compound 1 µM, first compound 0.0316 µM) 83% | viability, T/C (second compound 1 µM, first compound 0.1 µM) 90.5% | viability, T/C (second compound 1 µM, first compound 0.316 µM) 103% | viability, T/C (second compound 1 µM, first compound 1 µM) 96.7% | viability, T/C (second compound 1 µM, first compound 3.16 µM) 36.2% | viability, T/C (second compound 3.16 µM, first compound 0.0316 µM) 102% | viability, T/C (second compound 3.16 µM, first compound 0.1 µM) 135% | viability, T/C (second compound 3.16 µM, first compound 0.316 µM) 128% | viability, T/C (second compound 3.16 µM, first compound 1 µM) 99.9% | viability, T/C (second compound 3.16 µM, first compound 3.16 µM) 15.4%
1.97 µM: IC50 (curve of first compound, second compound 3.16 µM)
2.49 µM: IC50 (curve of first compound, second compound 0.1 µM)
< 0.0316 µM: IC50 (curve of first compound, second compound 10 µM)
active: viability, T/C (second compound 0.0316 µM, first compound 10 µM) 3.31% | viability, T/C (second compound 0.1 µM, first compound 10 µM) 3.17% | viability, T/C (second compound 0.316 µM, first compound 10 µM) 1.89% | viability, T/C (second compound 1 µM, first compound 10 µM) 0.95% | viability, T/C (second compound 3.16 µM, first compound 10 µM) 0.23% | viability, T/C (second compound 10 µM, first compound 0.0316 µM) 0.35% | viability, T/C (second compound 10 µM, first compound 0.1 µM) 0.4% | viability, T/C (second compound 10 µM, first compound 0.316 µM) 0.48% | viability, T/C (second compound 10 µM, first compound 1 µM) 0.37% | viability, T/C (second compound 10 µM, first compound 3.16 µM) 0.37% | viability, T/C (second compound 10 µM, first compound 10 µM) 0.19%
2.59 µM: IC50 (curve of first compound, second compound 0.316 µM)
2.39 µM: IC50 (curve of first compound, second compound 1 µM)
